Laboratory results from the supplement of paper PMC7214452.

Columns and labels:
Experiment in all cases: normalized area under the dose-response curve (viability relative to DMSO control) (fraction); higher = less sensitive (more viable cells)
Settings in all cases: exposure time not given
LP1 (cancer type: MM) = tested on: LP1 (cancer type: MM)
Method: (§1)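 25 myeloma and 15 non-Hodgkin lymphoma cell lines were exposed to each of 76 drugs as 7-point log dilutions (0.01 nM–10 µM) in duplicate. Viability was read with CellTiter-Glo and normalised to DMSO (0.1%) and staurosporine (10 µM) plate controls. Normalised AUC was calculated by the trapezoidal method relative to the negative control.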

[1] = tested on: OCI-MY5/Vec (cancer type: MM)
Method: as §1

XG2 (cancer type: MM) = tested on: XG2 (cancer type: MM)
Method: as §1

KMS26 (cancer type: MM) = tested on: KMS26 (cancer type: MM)
Method: as §1

[2] = tested on: JeKo-1 (cancer type: Mantle)
Method: as §1

[3] = tested on: NCI-H929 (cancer type: MM)
Method: as §1

KMS18 (cancer type: MM) = tested on: KMS18 (cancer type: MM)
Method: as §1

[4] = tested on: OCI-LY1 (cancer type: DLBCL)
Method: as §1

[5] = tested on: SU-DHL1 (cancer type: TCL)
Method: as §1

[6] = tested on: Karpas-299 (cancer type: TCL)
Method: as §1

[7] = tested on: SU-DHL6 (cancer type: DLBCL)
Method: as §1

My-La (cancer type: TCL) = tested on: My-La (cancer type: TCL)
Method: as §1

[8] = tested on: OCI-LY3 (cancer type: DLBCL)
Method: as §1

MM1.R (cancer type: MM) = tested on: MM1.R (cancer type: MM)
Method: as §1

L363 (cancer type: MM) = tested on: L363 (cancer type: MM)
Method: as §1

[9] = tested on: RPMI 8226 (cancer type: MM)
Method: as §1

KMS11 (cancer type: MM) = tested on: KMS11 (cancer type: MM)
Method: as §1

JJN3 (cancer type: MM) = tested on: JJN3 (cancer type: MM)
Method: as §1

[10] = tested on: HuT 78 (cancer type: TCL)
Method: as §1

[11] = tested on: SU-DHL2 (cancer type: DLBCL)
Method: as §1

[12] = tested on: OCI-MY5/CRBN (cancer type: MM)
Method: as §1

KMS34 (cancer type: MM) = tested on: KMS34 (cancer type: MM)
Method: as §1

[13] = tested on: Mino (cancer type: Mantle)
Method: as §1

FR4 (cancer type: MM) = tested on: FR4 (cancer type: MM)
Method: as §1

[14] = tested on: KMS28PE (cancer type: MM)
Method: as §1

Se-Ax (cancer type: TCL) = tested on: Se-Ax (cancer type: TCL)
Method: as §1

OPM2 (cancer type: MM) = tested on: OPM2 (cancer type: MM)
Method: as §1

MM1.S (cancer type: MM) = tested on: MM1.S (cancer type: MM)
Method: as §1

[15] = tested on: OCI-MY7 (cancer type: MM)
Method: as §1

[16] = tested on: JVM2 (cancer type: Mantle)
Method: as §1

[17] = tested on: OCI-LY19 (cancer type: DLBCL)
Method: as §1

[18] = tested on: Granta-519 (cancer type: Mantle)
Method: as §1

AMO1 (cancer type: MM) = tested on: AMO1 (cancer type: MM)
Method: as §1

U266 (cancer type: MM) = tested on: U266 (cancer type: MM)
Method: as §1

[19] = tested on: SR-786 (cancer type: TCL)
Method: as §1

EJM (cancer type: MM) = tested on: EJM (cancer type: MM)
Method: as §1

[20] = tested on: KMS28BM (cancer type: MM)
Method: as §1

[21] = tested on: OCI-MY5 (cancer type: MM)
Method: as §1

SKMM2 (cancer type: MM) = tested on: SKMM2 (cancer type: MM)
Method: as §1

[22] = tested on: KMS12PE (cancer type: MM)
Method: as §1

| SMILES | normalized area under the dose-response curve (LP1 (cancer type: MM)) | normalized area under the dose-response curve [1] | normalized area under the dose-response curve (XG2 (cancer type: MM)) | normalized area under the dose-response curve (KMS26 (cancer type: MM)) | normalized area under the dose-response curve [2] | normalized area under the dose-response curve [3] | normalized area under the dose-response curve (KMS18 (cancer type: MM)) | normalized area under the dose-response curve [4] | normalized area under the dose-response curve [5] | normalized area under the dose-response curve [6] | normalized area under the dose-response curve [7] | normalized area under the dose-response curve (My-La (cancer type: TCL)) | normalized area under the dose-response curve [8] | normalized area under the dose-response curve (MM1.R (cancer type: MM)) | normalized area under the dose-response curve (L363 (cancer type: MM)) | normalized area under the dose-response curve [9] | normalized area under the dose-response curve (KMS11 (cancer type: MM)) | normalized area under the dose-response curve (JJN3 (cancer type: MM)) | normalized area under the dose-response curve [10] | normalized area under the dose-response curve [11] | normalized area under the dose-response curve [12] | normalized area under the dose-response curve (KMS34 (cancer type: MM)) | normalized area under the dose-response curve [13] | normalized area under the dose-response curve (FR4 (cancer type: MM)) | normalized area under the dose-response curve [14] | normalized area under the dose-response curve (Se-Ax (cancer type: TCL)) | normalized area under the dose-response curve (OPM2 (cancer type: MM)) | normalized area under the dose-response curve (MM1.S (cancer type: MM)) | normalized area under the dose-response curve [15] | normalized area under the dose-response curve [16] | normalized area under the dose-response curve [17] | normalized area under the dose-response curve [18] | normalized area under the dose-response curve (AMO1 (cancer type: MM)) | normalized area under the dose-response curve (U266 (cancer type: MM)) | normalized area under the dose-response curve [19] | normalized area under the dose-response curve (EJM (cancer type: MM)) | normalized area under the dose-response curve [20] | normalized area under the dose-response curve [21] | normalized area under the dose-response curve (SKMM2 (cancer type: MM)) | normalized area under the dose-response curve [22] |
| --- | --- | --- | --- | --- | --- | --- | --- | --- | --- | --- | --- | --- | --- | --- | --- | --- | --- | --- | --- | --- | --- | --- | --- | --- | --- | --- | --- | --- | --- | --- | --- | --- | --- | --- | --- | --- | --- | --- | --- | --- |
| O=C(c1ccc(OCCN2CCCCC2)cc1)c1c(-c2ccc(O)cc2)sc2cc(O)ccc12 [Raloxifene] | 0.731 | 0.787 | 0.746 | 0.869 | 0.939 | 0.91 | 0.848 | 0.932 | 0.677 | 0.945 | 0.856 | 0.974 | 0.945 | 0.89 | 0.829 | 0.86 | 0.866 | 0.821 | 0.786 | 0.919 | 0.857 | 0.657 | 1.01 | 0.896 | 0.849 | 0.854 | 0.865 | 0.85 | 0.92 | 0.884 | 0.914 | 0.939 | 0.704 | 0.814 | 0.78 | 0.859 | 0.889 | 0.744 | 0.953 | 0.91 |
| COc1cc(Nc2ncc3c(n2)-c2ccc(Cl)cc2C(c2c(F)cccc2OC)=NC3)ccc1C(=O)O [Alisertib] | 0.851 | 0.809 | 0.69 | 0.887 | 0.716 | 0.94 | 0.833 | 0.794 | 0.761 | 0.816 | 0.946 | 0.851 | 0.878 | 0.85 | 0.872 | 0.927 | 0.772 | 0.919 | 0.826 | 0.964 | 0.85 | 0.684 | 0.622 | 0.916 | 0.918 | 0.73 | 0.957 | 0.85 | 0.92 | 0.706 | 0.853 | 0.709 | 0.7 | 0.859 | 0.802 | 0.889 | 0.913 | 0.881 | 0.967 | 0.94 |
| COC(=O)c1ccc2c(c1)NC(=O)/C2=C(\Nc1ccc(N(C)C(=O)CN2CCN(C)CC2)cc1)c1ccccc1 [Nintedanib] | 0.828 | 0.957 | 0.764 | 0.764 | 0.933 | 0.87 | 0.934 | 0.98 | 0.839 | 0.862 | 0.919 | 0.902 | 0.992 | 0.84 | 0.798 | 0.791 | 0.723 | 0.979 | 0.883 | 0.966 | 0.929 | 0.835 | 0.956 | 0.911 | 0.737 | 0.92 | 0.844 | 0.79 | 0.97 | 0.815 | 0.906 | 0.942 | 0.801 | 0.941 | 0.828 | 0.784 | 0.87 | 0.846 | 0.943 | 0.94 |
| COc1cc(C(=O)O)ccc1NC(=O)[C@@H]1N[C@@H](CC(C)(C)C)[C@](C#N)(c2ccc(Cl)cc2F)[C@H]1c1cccc(Cl)c1F [Idasanutlin] | 0.955 | 0.902 | 0.838 | 0.798 | 0.852 | 0.79 | 0.831 | 0.959 | 0.877 | 0.86 | 0.898 | 0.937 | 0.967 | 0.84 | 0.834 | 0.943 | 0.868 | 0.88 | 0.825 | 0.961 | 0.852 | 0.751 | 0.928 | 0.837 | 0.922 | 0.82 | 0.861 | 0.81 | 0.92 | 0.832 | 0.92 | 0.873 | 0.732 | 0.773 | 0.861 | 0.858 | 0.935 | 0.834 | 0.962 | 0.96 |
